From patent publication US9795139B2, “Molecules having pesticidal utility, and intermediates, compositions, and processes, related thereto” (priority 2015, dated 2017)

Assays:
Type in all cases: in vivo
[1] = test system: Green Peach Aphid (Myzus persicae, MYZUPE); assay: Bioassay on Green Peach Aphid (GPA), foliar spray on cabbage seedlings; details: 72 h, 200 ppm foliar spray on cabbage seedlings, three days, Abbott corrected % control, read-out: GPA % Control (or Mortality) rating
Protocol: Certain molecules disclosed in this document were tested against GPA using procedures described in the following example. In the reporting of the results, the “GPA & YFM Rating Table” was used (See Table Section).
Cabbage seedlings grown in 3-inch pots, with 2-3 small (3-5 cm) true leaves, were used as test substrate. The seedlings were infested with 20-50 GPA (wingless adult and nymph stages) one day prior to chemical application. Four pots with individual seedlings were used for each treatment. Test molecules (2 mg) were dissolved in 2 mL of acetone/methanol (1:1) solvent, forming stock solutions of 1000 ppm test molecule.
The stock solutions were diluted 5× with 0.025% Tween 20 in water to obtain the solution at 200 ppm test molecule. A hand-held aspirator-type sprayer was used for spraying a solution to both sides of […] leaves until runoff. Reference plants (solvent check) were sprayed with the diluent only containing 20% by volume of acetone/methanol (1:1) solvent. Treated plants were held in a holding room for three days at approximately 25° C. and ambient relative humidity (RH) prior to grading. Evaluation was conducted by counting the number of live aphids per plant under a microscope. Percent control was measured using Abbott's correction formula (W. S. Abbott, “A Method of Computing the Effectiveness of an Insecticide” J. Econ. Entomol. 18 (1925), pp. 265-267) as follows. Corrected % Control=100*(X−Y)/X where X=No. of live aphids on solvent check plants and Y=No. of live aphids on treated plants. The results are indicated in the table entitled “Table ABC: Biological Results” (See Table Section).

[2] = test system: Cabbage Looper (Trichoplusia ni, TRIPNI); assay: Bioassay on Cabbage Looper (CL), 128-well diet tray assay; details: 168 h, 50 μg/cm^2 on artificial diet, second instar larvae, 25° C., five to seven days, average of eight wells, read-out: CL % Control (or Mortality) rating
Procedure, shortened: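 Second-instar larvae, one to five per well, placed on artificial diet treated with 50 μg/cm^2 test molecule in 90:10 acetone-water, dried before infestation. Held 5–7 days at 25° C, 14:10 light-dark; percent mortality averaged over eight wells.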

[3] = test system: Beet Armyworm (Spodoptera exigua, LAPHEG); assay: Bioassay on Beet Armyworm (BAW), 128-well diet tray assay; details: 168 h, 50 μg/cm^2 on artificial diet, second instar larvae, 25° C., five to seven days, average of eight wells, read-out: BAW % Control (or Mortality) rating
Procedure, shortened: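 Second instar larvae were exposed to diet treated at 50 μg/cm^2 for five to seven days at 25° C.; mortality was averaged over eight wells.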

[4] = test system: Yellow Fever Mosquito (Aedes aegypti, AEDSAE); details: about 1 day-old larvae, 96-well plate from 4000 ppm DMSO master, 3 days at room temperature
Procedure, shortened: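 Each well was scored for mortality after 3 days at room temperature under a non-evaporative lid. Test molecules came from DMSO masters (4000 ppm stock) diluted with water/acetone 90:10 and dispensed into six replicate plates, which were then infested with roughly 1-day-old larvae in liver-powder water.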

N#CC1(NC(=O)c2cc(NC(=O)[C@H]3[C@H](c4ccc(Cl)c(Cl)c4)C3(Cl)Cl)ccc2Cl)CC1 (relative stereo) [Molecule F11, trans-2-Chloro-N-(1-cyanocyclopropyl)-5-(2,2-dichloro-3-(3,4-dichlorophenyl)cyclopropanecarboxamido)benzamide]
mortality at 200 ppm [1]: 80 to 100% | mortality at 50 µg/cm2 [2]: 50 to 100% | mortality at 50 µg/cm2 [3]: 50 to 100% | YFM % Control (or Mortality) rating [4]: A (80-100)

N#CC1(NC(=O)c2cc(NC(=O)[C@H]3[C@H](c4cccc(C(F)(F)F)c4)C3(Cl)Cl)ccc2Cl)CC1 (relative stereo) [Molecule F18, trans-2-Chloro-N-(1-cyanocyclopropyl)-5-(2,2-dichloro-3-(3-(trifluoromethyl)phenyl)cyclopropanecarboxamido)benzamide]
mortality at 200 ppm [1]: 80 to 100% | mortality at 50 µg/cm2 [2]: 50 to 100% | mortality at 50 µg/cm2 [3]: 50 to 100% | YFM % Control (or Mortality) rating [4]: B (More than 0-Less than 80)

CN(C(=O)c1cc(NC(=O)[C@H]2[C@H](c3cc(Cl)cc(Cl)c3)C2(Cl)Cl)ccc1Cl)C1CC(F)(F)C1 (relative stereo) [Molecule F32, trans-2-Chloro-5-(2,2-dichloro-3-(3,5-dichlorophenyl)cyclopropanecarboxamido)-N-(3,3-difluorocyclobutyl)-N-methylbenzamide]
mortality at 200 ppm [1]: 80 to 100% | mortality at 50 µg/cm2 [2]: 50 to 100% | mortality at 50 µg/cm2 [3]: 50 to 100% | YFM % Control (or Mortality) rating [4]: A (80-100)

N#CC1(NC(=O)c2cc(NC(=O)[C@H]3[C@H](c4cc(Cl)c(Cl)c(Cl)c4)C3(Cl)Cl)ccc2Cl)CC1 (relative stereo) [Molecule F10, trans-2-Chloro-N-(1-cyanocyclopropyl)-5-(2,2-dichloro-3-(3,4,5-trichlorophenyl)cyclopropanecarboxamido)benzamide]
mortality at 200 ppm [1]: 80 to 100% | mortality at 50 µg/cm2 [2]: 50 to 100% | mortality at 50 µg/cm2 [3]: 50 to 100% | YFM % Control (or Mortality) rating [4]: A (80-100)

CN(C(=O)c1cc(NC(=O)[C@H]2[C@H](c3cc(Cl)c(Cl)c(Cl)c3)C2(Cl)Cl)ccc1Cl)C1CC(F)(F)C1 (relative stereo) [Molecule F34, trans-2-Chloro-5-(2,2-dichloro-3-(3,4,5-trichlorophenyl)cyclopropanecarboxamido)-N-(3,3-difluorocyclobutyl)-N-methylbenzamide]
mortality at 200 ppm [1]: 0 to 80% | mortality at 50 µg/cm2 [2]: 50 to 100% | mortality at 50 µg/cm2 [3]: 50 to 100% | YFM % Control (or Mortality) rating [4]: A (80-100)

Cc1cc([C@H]2[C@H](C(=O)Nc3ccc(Cl)c(C(=O)NC4CC(F)(F)C4)c3)C2(Cl)Cl)cc(Cl)c1Cl (relative stereo) [Molecule F50, trans-2-Chloro-5-(2,2-dichloro-3-(3,4-dichloro-5-methylphenyl)cyclopropanecarboxamido)-N-(3,3-difluorocyclobutyl)benzamide]
mortality at 200 ppm [1]: 0 to 80% | mortality at 50 µg/cm2 [2]: 50 to 100% | mortality at 50 µg/cm2 [3]: 50 to 100% | YFM % Control (or Mortality) rating [4]: D (No activity noticed in this bioassay)

O=C(NC1CC(F)(F)C1)c1cc(NC(=O)[C@H]2[C@H](c3ccc(OC(F)(F)F)c(Cl)c3)C2(Cl)Cl)ccc1Cl (relative stereo) [Molecule F21, trans-2-Chloro-5-(2,2-dichloro-3-(3-chloro-4-(trifluoromethoxy)phenyl)cyclopropanecarboxamido)-N-(3,3-difluorocyclobutyl)benzamide]
mortality at 200 ppm [1]: 80 to 100% | mortality at 50 µg/cm2 [2]: 50 to 100% | mortality at 50 µg/cm2 [3]: 50 to 100% | YFM % Control (or Mortality) rating [4]: A (80-100)

N#CC1(NC(=O)c2cc(NC(=O)[C@H]3[C@H](c4cc(Cl)c(Cl)c(Cl)c4)C3(Cl)Cl)ccc2Cl)CCC1 (relative stereo) [Molecule F13, trans-2-Chloro-N-(1-cyanocyclobutyl)-5-(2,2-dichloro-3-(3,4,5-trichlorophenyl)cyclopropanecarboxamido)benzamide]
mortality at 200 ppm [1]: 0 to 80% | mortality at 50 µg/cm2 [2]: 50 to 100% | mortality at 50 µg/cm2 [3]: 50 to 100% | YFM % Control (or Mortality) rating [4]: A (80-100)

N#CC1(NC(=O)c2cc(NC(=O)[C@H]3[C@H](c4cc(Cl)cc(Cl)c4)C3(Cl)Cl)ccc2Cl)CCC1 (relative stereo) [Molecule F12, trans-2-Chloro-N-(1-cyanocyclobutyl)-5-(2,2-dichloro-3-(3,5-dichlorophenyl)cyclopropanecarboxamido)benzamide]
mortality at 200 ppm [1]: 0 to 80% | mortality at 50 µg/cm2 [2]: 50 to 100% | mortality at 50 µg/cm2 [3]: 50 to 100% | YFM % Control (or Mortality) rating [4]: A (80-100)

O=C(NC1CC(F)(F)C1)c1cc(NC(=O)[C@H]2[C@H](c3cc(Cl)cc(Cl)c3)C2(Cl)Br)ccc1Cl (relative stereo) [Molecule F71, trans-5-(2-Bromo-2-chloro-3-(3,5-dichlorophenyl)cyclopropane-1-carboxamido)-2-chloro-N-(3,3-difluorocyclobutyl)benzamide]
mortality at 200 ppm [1]: 80 to 100% | mortality at 50 µg/cm2 [2]: 50 to 100% | mortality at 50 µg/cm2 [3]: 50 to 100% | YFM % Control (or Mortality) rating [4]: B (More than 0-Less than 80)

O=C(NC1CSC1)c1cc(NC(=O)[C@H]2[C@H](c3cc(Cl)c(Cl)c(Cl)c3)C2(Cl)Cl)ccc1Cl (relative stereo) [Molecule F17, trans-2-Chloro-5-(2,2-dichloro-3-(3,4,5-trichlorophenyl)cyclopropanecarboxamido)-N-(thietan-3-yl)benzamide]
mortality at 200 ppm [1]: 80 to 100% | mortality at 50 µg/cm2 [2]: 50 to 100% | mortality at 50 µg/cm2 [3]: 50 to 100% | YFM % Control (or Mortality) rating [4]: A (80-100)

O=C(NC1CCOCC1)c1cc(NC(=O)[C@H]2[C@H](c3cc(Cl)cc(Cl)c3)C2(Cl)Cl)ccc1Cl (relative stereo) [Molecule F55, trans-2-chloro-5-(2,2-dichloro-3-(3,5-dichlorophenyl)cyclopropanecarboxamido)-N-(tetrahydro-2H-pyran-4-yl)benzamide]
mortality at 200 ppm [1]: 80 to 100% | mortality at 50 µg/cm2 [2]: 50 to 100% | mortality at 50 µg/cm2 [3]: 50 to 100%

O=C(NC1CC1)c1cccc(NC(=O)[C@H]2[C@H](c3cc(Cl)cc(Cl)c3)C2(Cl)Cl)c1 (relative stereo) [Molecule F3, trans-N-Cyclopropyl-3-(2,2-dichloro-3-(3,5-dichlorophenyl)cyclopropanecarboxamido)benzamide]
mortality at 200 ppm [1]: 0 to 80% | mortality at 50 µg/cm2 [2]: 50 to 100% | mortality at 50 µg/cm2 [3]: 50 to 100% | YFM % Control (or Mortality) rating [4]: A (80-100)

O=C(NC1CC(F)(F)C1)c1cc(NC(=O)[C@H]2[C@H](c3ccc([N+](=O)[O-])cc3)C2(Cl)Cl)ccc1Cl (relative stereo) [Molecule F69, trans-2-chloro-5-(2,2-dichloro-3-(4-nitrophenyl)cyclopropane-1-carboxamido)-N-(3,3-difluorocyclobutyl)benzamide]
mortality at 50 µg/cm2 [2]: 50 to 100% | mortality at 50 µg/cm2 [3]: 50 to 100% | YFM % Control (or Mortality) rating [4]: A (80-100)

O=C(NC1CC1(F)F)c1cc(NC(=O)[C@H]2[C@H](c3cc(Cl)cc(Cl)c3)C2(Cl)Cl)ccc1Cl (relative stereo) [PF23, trans-2-Chloro-5-(2,2-dichloro-3-(3,5-dichlorophenyl)cyclopropane-1-carboxamido)-N-(2,2-difluorocyclopropyl)benzamide]
mortality at 50 µg/cm2 [2]: 50 to 100% | mortality at 50 µg/cm2 [3]: 50 to 100% | YFM % Control (or Mortality) rating [4]: A (80-100)

N#CC1(NC(=O)c2cc(NC(=O)[C@H]3[C@H](c4cc(Cl)cc(C(F)F)c4)C3(Cl)Cl)ccc2Cl)CC1 (relative stereo) [Molecule F85, trans-2-Chloro-N-(1-cyanocyclopropyl)-5-(2,2-dichloro-3-(3-chloro-5-(difluoro-methyl)phenyl)cyclopropane-1-carboxamido)benzamide]
mortality at 50 µg/cm2 [2]: 50 to 100% | mortality at 50 µg/cm2 [3]: 50 to 100% | YFM % Control (or Mortality) rating [4]: A (80-100)

O=C(NC1CN(C(=O)C2CC2)C1)c1cc(NC(=O)[C@H]2[C@H](c3cc(Cl)cc(Cl)c3)C2(Cl)Cl)ccc1Cl (relative stereo) [PF9, trans-2-chloro-N-(1-(cyclopropanecarbonyl)-azetidin-3-yl)-5-(2,2-dichloro-3-(3,5-dichlorophenyl)cyclopropane-1-carboxamido)benzamide]
mortality at 50 µg/cm2 [2]: 50 to 100% | mortality at 50 µg/cm2 [3]: 50 to 100% | YFM % Control (or Mortality) rating [4]: B (More than 0-Less than 80)
